# Target: Cyclin-dependent kinase 2/cyclin A (Homo sapiens, UniProt P24941)
# Experiment: Inhibition of CDK2/cyclin A
# Format: protein-complex assay
row,IC50 [nM],SMILES
1,20,NC(=O)c1cn(-c2ccccc2)c2c1CCc1cnc(NC3CCCC3)nc1-2
2,17,CN1CCN(c2ccc(Nc3ncc4c(n3)-c3c(c(C(N)=O)cn3C)C(C)(C)C4)cc2)CC1
3,52,NC(=O)c1cn(-c2ccccn2)c2c1CCc1cnc(NC3CCCC3)nc1-2
4,6,COc1ccc(-n2cc(C(N)=O)c3c2-c2nc(NC4CCCC4)ncc2CC3)cc1
5,31,CNC(=O)c1cn(C)c2c1C(C)(C)Cc1cnc(Nc3cccc(N4CCN(C)CC4)c3)nc1-2
6,5,NC(=O)c1cn(-c2ccc(S(N)(=O)=O)cc2)c2c1CCc1cnc(NC3CCCC3)nc1-2
7,8,NC(=O)c1cn(CCO)c2c1CCc1cnc(NC3CCCC3)nc1-2
8,29,CNC(=O)c1cn(C)c2c1C(C)(C)Cc1cnc(Nc3ccc(OC4CCN(C)CC4)cc3)nc1-2
9,6,CN1CCC(n2cc(C(N)=O)c3c2-c2nc(NC4CCCC4)ncc2CC3)CC1
10,55,CNC(=O)c1cn(C)c2c1C(C)(C)Cc1cnc(Nc3ccc(CN4CCN(C)CC4)cc3)nc1-2
11,59,CNC(=O)c1cn(C2CCN(C)CC2)c2c1CCc1cnc(NC3CCCC3)nc1-2
12,59,CNC(=O)c1cn(C)c2c1C(C)(C)Cc1cnc(Nc3cccc(CN4CCN(C)CC4)c3)nc1-2
13,32,CNC(=O)c1cn(C)c2c1CCc1cnc(NC3CCN(C(C)=O)CC3)nc1-2
14,220,CNC(=O)c1cn(C)c2c1C(C)(C)Cc1cnc(Nc3cccc(N(C)C)c3)nc1-2
15,35,CNC(=O)c1cn(C)c2c1C(C)(C)Cc1cnc(Nc3ccc(CN(C)C)cc3)nc1-2
16,51.1,Cn1cc(C(N)=O)c2c1-c1nc(NCc3ccccc3)ncc1CC2
17,12,CN1CCN(C(=O)N2CCC(Nc3ncc4c(n3)-c3c(c(C(N)=O)cn3C)CC4)CC2)CC1

row,IC50 [nM],SMILES
1,65.9,COc1cccc(CNc2ncc3c(n2)-c2c(c(C(N)=O)cn2C)CC3)c1
2,1120,CNC(=O)c1cn(C)c2c1CCc1cnc(NC3CCN(C(=O)N4CCN(C)CC4)CC3)nc1-2
3,1,CCOC(=O)N1CCC(Nc2ncc3c(n2)-c2c(c(C(N)=O)cn2C)CC3)CC1
4,80.9,Cn1cc(C(N)=O)c2c1-c1nc(NCc3ccc(Br)cc3)ncc1CC2
5,13,CC(=O)Nc1ccc(CNc2ncc3c(n2)-c2c(c(C(N)=O)cn2C)CC3)cc1
6,57.9,CCOC(=O)N1CCC(Nc2ncc3c(n2)-c2c(c(C(=O)NC)cn2C)CC3)CC1
7,4,Cn1cc(C(N)=O)c2c1-c1nc(NC3CCN(S(=O)(=O)c4ccccc4)CC3)ncc1CC2
8,21,Cn1cc(C(N)=O)c2c1-c1nc(NCc3ccncc3)ncc1CC2
9,5,CNC(=O)c1cn(C)c2c1CCc1cnc(NC3CCN(S(=O)(=O)c4ccccc4)CC3)nc1-2
10,21,Cn1cc(C(N)=O)c2c1-c1nc(NCc3cccnc3)ncc1CC2
11,209,Cn1cc(C(N)=O)c2c1-c1nc(NCCN3CCOCC3)ncc1CC2
12,19,Cn1cc(C(N)=O)c2c1-c1nc(NCCO)ncc1CC2
13,1050,Cn1cc(C(=O)NCc2ccccc2)c2c1-c1nc(Nc3ccccc3)ncc1CC2
14,97.1,CNC(=O)c1cn(C)c2c1CCc1cnc(NC3CCCC3)nc1-2
15,1760,CC(CN(C)C)NC(=O)c1cn(C)c2c1CCc1cnc(NC3CCCC3)nc1-2 (centres undefined)
16,1,CN1CCN(c2cccc(Nc3ncc4c(n3)-c3c(c(C(N)=O)cn3C)CC4)c2)CC1
17,1370,Cn1cc(C(=O)N(O)Cc2ccccc2)c2c1-c1nc(NC3CCCC3)ncc1CC2

# Second part, the compound before the results:
row,SMILES,IC50 [nM]
1,NC(=O)c1cn(Cc2ccccc2)c2c1CCc1cnc(NC3CCCC3)nc1-2,23
2,CNC(=O)c1cn(C)c2c1C(C)(C)Cc1cnc(Nc3ccc(N4CCOCC4)cc3)nc1-2,137
3,CNC(=O)c1cn(C)c2c1C(C)(C)Cc1cnc(Nc3cccc(N4CCOCC4)c3)nc1-2,248
4,NC(=O)c1cn(CC(F)(F)F)c2c1CCc1cnc(NC3CCCC3)nc1-2,5
5,CNC(=O)c1cn(C)c2c1C(C)(C)Cc1cnc(Nc3cccc(OC4CCN(C)CC4)c3)nc1-2,47
6,CC(=O)N1CCC(n2cc(C(N)=O)c3c2-c2nc(NC4CCCC4)ncc2CC3)CC1,7
7,CNC(=O)c1cn(C)c2c1C(C)(C)Cc1cnc(Nc3ccc(CN4CCOCC4)cc3)nc1-2,36
8,CNC(=O)c1cn(C)c2c1CCc1cnc(NC3CCN(C)CC3)nc1-2,4580
9,CNC(=O)c1cn(C)c2c1C(C)(C)Cc1cnc(Nc3cccc(CN4CCOCC4)c3)nc1-2,160
10,CNC(=O)c1cn(C)c2c1C(C)(C)Cc1cnc(Nc3ccc(N(C)C)cc3)nc1-2,59
11,Cn1cc(C(N)=O)c2c1-c1nc(NC3CCN(C(=O)c4ccccc4)CC3)ncc1CC2,3
12,CNC(=O)c1cn(C)c2c1CCc1cnc(NC3CCN(C(=O)c4ccccc4)CC3)nc1-2,25
13,CNC(=O)c1cn(C)c2c1C(C)(C)Cc1cnc(Nc3cccc(CN(C)C)c3)nc1-2,83
14,COc1ccc(CNc2ncc3c(n2)-c2c(c(C(N)=O)cn2C)CC3)cc1,57.9
15,Cn1cc(C(N)=O)c2c1-c1nc(NC3CCN(S(C)(=O)=O)CC3)ncc1CC2,1
16,Cn1cc(C(N)=O)c2c1-c1nc(NCc3ccc(S(C)(=O)=O)cc3)ncc1CC2,38
17,CN1CCN(c2cccc(CNc3ncc4c(n3)-c3c(c(C(N)=O)cn3C)CC4)c2)CC1,104
18,CN1CCN(c2ccc(CNc3ncc4c(n3)-c3c(c(C(N)=O)cn3C)CC4)cc2)CC1,17
19,Cn1cc(C(N)=O)c2c1-c1nc(NCc3ccccn3)ncc1CC2,86.9
20,Cn1cc(C(=O)NCCO)c2c1-c1nc(Nc3ccccc3)ncc1CC2,74
21,CCN1CCC(Nc2ncc3c(n2)-c2c(c(C(N)=O)cn2C)CC3)CC1,149
22,CN1CCN(c2ccc(Nc3ncc4c(n3)-c3c(c(C(N)=O)cn3C)CC4)cc2)CC1,2
23,CN(O)C(=O)c1cn(C)c2c1CCc1cnc(NC3CCCC3)nc1-2,175
24,Cn1cc(C(N)=O)c2c1-c1nc(Nc3ccc(N4CCOCC4)cc3)ncc1CC2,14
25,Cn1cc(C(N)=O)c2c1-c1nc(Nc3ccccc3)ncc1CC2(C)C,24

# Source: ChEMBL document CHEMBL1268905, “3D-QSAR and docking studies on pyrazolo[4,3-h]qinazoline-3-carboxamides as cyclin-dependent kinase 2 (CDK2) inhibitors” (Bioorg Med Chem Lett, 2010)
